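Step 1: Grow cells in 96-well plates. Step 2: Expose to compound for 48 hours at 5 concentrations. Step 3: Interpolate endpoints linearly; if unreached, use highest concentration. TGI denotes the concentration required for complete inhibition of growth.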
Experiments:
Experiment in all cases: DTP human tumour cell line panel, 48 h
[1] = tested on: COLO 205 colon
[2] = tested on: A549 NSCLC
[3] = tested on: OVCAR-5 ovarian
[4] = tested on: SN12C renal
[5] = tested on: SK-OV-3 ovarian
[6] = tested on: DU-145 prostate
[7] = tested on: CCRF-CEM leukemia
[8] = tested on: NCI-H23 lung
[9] = tested on: SF-539 CNS
[10] = tested on: T-47D breast
[11] = tested on: SR leukemia
[12] = tested on: RPMI-8226 leukemia
[13] = tested on: ACHN renal
[14] = tested on: UACC-62 melanoma
[15] = tested on: 786-0 renal
[16] = tested on: HT29 colon
[17] = tested on: PC-3 prostate
[18] = tested on: K-562 leukemia
[19] = tested on: HCT-15 colon
[20] = tested on: OVCAR-8 ovarian
[21] = tested on: HOP-62 NSCLC
[22] = tested on: MALME-3M melanoma
[23] = tested on: EKVX NSCLC
[24] = tested on: CAKI-1 renal
[25] = tested on: BT-549 breast
[26] = tested on: SK-MEL-5 melanoma
[27] = tested on: MCF7 breast
[28] = tested on: LOX IMVI melanoma
[29] = tested on: KM12 colon
[30] = tested on: UACC-257 melanoma
[31] = tested on: SK-MEL-28 melanoma
[32] = tested on: UO-31 renal
[33] = tested on: MOLT-4 leukemia
[34] = tested on: SW-620 colon
[35] = tested on: HS 578T breast
[36] = tested on: HCT-116 colon
[37] = tested on: NCI/ADR-RES ovarian
[38] = tested on: TK-10 renal
[39] = tested on: NCI-H522 lung
[40] = tested on: MDA-MB-231 breast
[41] = tested on: SNB-19 CNS
[42] = tested on: MDA-N
[43] = tested on: OVCAR-3 ovarian
[44] = tested on: SF-268 CNS
[45] = tested on: NCI-H460 lung
[46] = tested on: U251 CNS
[47] = tested on: M14 melanoma
[48] = tested on: HCC-2998 colon
[49] = tested on: OVCAR-4 ovarian
[50] = tested on: IGROV1 ovarian
[51] = tested on: HOP-92 NSCLC
[52] = tested on: SK-MEL-2 melanoma
[53] = tested on: SNB-75 CNS
[54] = tested on: MDA-MB-435
[55] = tested on: SF-295 CNS

Cc1cccc(/C=N/NC(=S)Nc2ccc(Cl)cc2)n1
TGI [1]: 17.6 µM
TGI [2]: 13.6 µM
TGI [3]: 73.3 µM
TGI [4]: 34 µM
TGI [5]: 10.8 µM
TGI [6]: > 100 µM
TGI [7]: 42.8 µM
TGI [8]: 34.9 µM
TGI [9]: 12.7 µM
TGI [10]: > 100 µM
TGI [11]: > 100 µM
TGI [12]: > 100 µM
TGI [13]: 11.3 µM
TGI [14]: 3.68 µM
TGI [15]: 12.1 µM
TGI [16]: 54.5 µM
TGI [17]: 26.2 µM
TGI [18]: > 100 µM
TGI [19]: 23.1 µM
TGI [20]: 33.7 µM
TGI [21]: 11.9 µM
TGI [22]: 20.8 µM
TGI [23]: 23.1 µM
TGI [24]: 13.3 µM
TGI [25]: 30.4 µM
TGI [26]: 8.97 µM
TGI [27]: 25.9 µM
TGI [28]: 10.7 µM
TGI [29]: 40.8 µM
TGI [30]: 18.9 µM
TGI [31]: 20 µM
TGI [32]: 12.5 µM
TGI [33]: 10.9 µM
TGI [34]: 20 µM
TGI [35]: 17.5 µM
TGI [36]: 12.9 µM
TGI [37]: 26 µM
TGI [38]: 71.7 µM
TGI [39]: 4.93 µM
TGI [40]: 15.8 µM
TGI [41]: 22.2 µM
TGI [42]: 25.5 µM
TGI [43]: 61 µM
TGI [44]: 17.4 µM
TGI [45]: 15.9 µM
TGI [46]: 13.5 µM
TGI [47]: 7.69 µM
TGI [48]: 40.3 µM
TGI [49]: > 100 µM
TGI [50]: 12.7 µM
TGI [51]: 20 µM
TGI [52]: 25.6 µM
TGI [53]: 16.1 µM
TGI [54]: 17.5 µM
TGI [55]: 14.4 µM

Reference: PubChem BioAssay (NCI)
